According to patent US11000537B2, “Composition comprising novel ginsenoside” (AMOREPACIFIC CORPORATION, priority 2018, dated 2021):

Tested on: ACC (acetyl-CoA carboxylase)
Test: ACC gene expression in HepG2 (qPCR)
Format: cell-based
Conditions: 24 hours
Experimental: The hepatocyte cell line HepG2 purchased from the International Center for Biological Resources (ATCC) were placed in Dulbecco's Modified Eagle's Medium (Sigma) to which 10% fetal bovine serum (Hyclone) and 1% penicillin/streptomycin (Sigma) were added, and cultured in a 5% CO2 incubator. As a positive control, fenofibrate (FF, Sigma), which is used as an antihyperlipidemic drug, was used, and 7 kinds of ginsenosides (GS #01-GS #06, GS #10; 10 μM each) extracted from Ginseng seed were used for the experiment. After 24 hours of treatment, cells were collected, RNA was extracted using Trizol™ reagent (Thermo Fisher Scientific), and cDNA was synthesized using RevertAid™ 1st strand cDNA synthesis kit (Thermo Fisher Scientific). Bio-Rad's CFX96 real-time quantitative PCR (qPCR) instrument was used to observe the expression of the genes SREBP1c (sterol-regulatory element binding protein 1c), ACC (acetyl-CoA carboxylase) and FAS (Fatty acid synthase), which induces fat synthesis or accumulation.

CC1(C)C(=O)CC[C@@]2(C)C1[C@@H](O[C@H]1OC(CO)[C@H](O)C(O)C1O[C@H]1OC(CO)[C@H](O)C(O)C1O)C[C@]1(C)C2C[C@@H](O)C2C([C@]3(C)CC[C@H](C(C)(C)O)O3)CC[C@]21C (stereo partly drawn) [GS #10, (20S,24R)-6-O-β-D-glucopyranosyl(1→2)-β-D-glucopyranoside-dammar-3-one-20,24-epoxy-6a,12b,25-triol]
ACC expression inhibitory effect (10 μM, HepG2, FIG. 19): significantly higher expression inhibitory effect | ACC expression inhibitory effect (1, 10 μM, compared with Rg1, Rg3, Rb1, FIG. 24): far superior in lipid metabolism inhibitory effect
